Laboratory results reported in US8354399B2, “Substituted indazole derivatives active as kinase inhibitors” (Nerviano Medical Sciences S.R.L., priority 2008, dated 2013).

Columns and labels:
ALK = target: T1, ALK (Homo sapiens, UniProt Q9UM73); test: Biochemical assay for inhibitors of ALK kinase activity
T1 construct: made in house; host or cells: Sf21 insect cells (baculovirus)
Text: Preparation of ALK Cytoplasmic Domain for Use in Biochemical Assay
ALK cytoplasmic domain, corresponding to the residue 1060-1620 (the numbers of the amino acid residues refer to the Genbank accession number NP 004295.2) was PCR amplified from a human testis cDNA library.
For cloning purposes, the oligonucleotides included attB sites in order to obtain an attB-flanked PCR product suitable for cloning using the Gateway technology (Invitrogen). Furthermore, for purification purposes, forward primer included a PreScission cleavage site (Amersham Biosciences). The resulting PCR product was cloned in the baculovirus expression vector pVL1393 (Invitrogen) Gateway-modified. For expression and purification purpose, a GST tag was added N-terminal to the ALK cytoplasmic domain. Cloning was performed according to the protocols described in the Gateway manual (Invitrogen).
Biochemical Assay for Inhibitors of ALK Kinase Activity
ALK enzyme needs pre-activation in order to linearize reaction kinetics.
Kinase buffer was composed of 50 mM HEPES pH 7.5 containing 1 mM MnCl2, 5 mM MgCl2, 1 mM DTT, 3 microM Na3VO4, and 0.2 mg/mL BSA. 3× KB is buffer of the same composition and pH as KB, but with three times the concentration of each component.
The kinase assay was run with a final enzyme concentration of 20 nM, in the presence of 8 microM ATP, 1 nM ^33P-γ-ATP and 2 microM MBP. The MPB was purchased from Sigma-Aldrich, St. Louis, Mo., USA.

IGF-1R = target: T2, IGF-1R (Homo sapiens, UniProt P08069); test: Biochemical assay for inhibitors of IGF-1R kinase activity
T2 construct: amino acid residues 960-1367 of precursor protein; made in house; host or cells: H5 insect cells (baculovirus; virus generated in Sf21)
T2 sequence (P08069 960-1367): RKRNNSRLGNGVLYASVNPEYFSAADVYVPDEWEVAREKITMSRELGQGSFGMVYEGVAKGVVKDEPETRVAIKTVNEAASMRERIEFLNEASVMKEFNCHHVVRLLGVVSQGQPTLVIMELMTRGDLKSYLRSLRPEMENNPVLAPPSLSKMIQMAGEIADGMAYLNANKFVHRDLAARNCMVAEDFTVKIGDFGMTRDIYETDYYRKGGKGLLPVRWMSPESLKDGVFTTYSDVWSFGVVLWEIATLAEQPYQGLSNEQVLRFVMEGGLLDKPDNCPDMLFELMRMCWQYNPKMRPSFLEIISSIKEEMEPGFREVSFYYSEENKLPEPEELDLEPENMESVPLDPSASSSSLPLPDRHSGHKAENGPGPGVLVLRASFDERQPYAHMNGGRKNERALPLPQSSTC
Description: Preparation of IGF-1R for Use in Biochemical Assay
Human cDNA was used as template for amplification by polymerase chain reaction (PCR) of the predicted cytoplasmic portion of IGF-1R (amino acid residues 960-1367 of precursor protein; see NCBI Entrez Protein Accession #P08069) which includes the entire kinase domain. PCR was conducted using the forward primer sequence
Biochemical Assay for Inhibitors of IGF-1R Kinase Activity
The inhibitory activity of putative kinase inhibitors and the potency of selected compounds were determined using a trans-phosphorylation assay.
A specific substrate was incubated with the kinase in appropriate buffer conditions in the presence of ATP traced with ^33P-γ-ATP (gamma phosphate-labeled, Redivue™ Code Number AH9968, 1000-3000Ci/mmole, Amersham Biosciences Piscataway, N.J., USA), optimal cofactors and test compound.
At the end of the phosphorylation reaction, more than 98% cold and radioactive ATP were captured by an excess of Dowex ion exchange resin. The resin was allowed to settle to the bottom of reaction wells by gravity. Supernatant, containing substrate peptide, was subsequently withdrawn and transferred into a counting plate, and radioactivity (corresponding to phosphate incorporated into peptide) was evaluated by β-counting.
Kinase buffer was composed of 50 mM HEPES pH 7.9 containing 3 mM MnCl2, 1 mM DTT, 3 microM Na3VO4, and 0.2 mg/mL BSA. 3× KB is buffer of the same composition and pH as KB, but with three times the concentration of each component.
Prior to starting the kinase inhibition assay, IGF-1R was pre-phosphorylated in order to linearize reaction kinetics. To achieve this, the desired total quantity of enzyme was prepared at an enzyme concentration of 360 nM in KB containing 100 microM ATP, and this preparation was incubated for 30 min at 28° C. 3× Enzyme Mix was obtained by diluting this preactivated enzyme 20-fold in 3× KB. […]

JAK2 = target: T3, JAK2 (Homo sapiens, UniProt O60674); test: Biochemical assay for inhibitors of JAK2 kinase activity
T3 construct: The assay has been performed using the commercially available JAK2 kinase domain; purchased Invitrogen, Eugene, Oreg
T3 sequence (O60674 849-1124 limits assumed): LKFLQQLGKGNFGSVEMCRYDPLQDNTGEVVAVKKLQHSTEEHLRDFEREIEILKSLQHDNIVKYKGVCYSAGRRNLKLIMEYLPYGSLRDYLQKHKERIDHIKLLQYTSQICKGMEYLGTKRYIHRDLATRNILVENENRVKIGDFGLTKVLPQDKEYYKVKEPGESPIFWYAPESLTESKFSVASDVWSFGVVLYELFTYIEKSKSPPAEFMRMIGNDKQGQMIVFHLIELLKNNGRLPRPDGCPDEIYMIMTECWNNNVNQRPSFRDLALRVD
Text: Biochemical Assay for Inhibitors of JAK2 Kinase Activity
General Principle—A specific JAK2 peptide substrate is trans-phosphorylated by JAK2 kinase in the presence of ATP traced with ^33P-γ-ATP. At the end of the phosphorylation reaction, 98% of the cold and radioactive ATP is captured by an excess of dowex ion exchange resin that eventually settles by gravity to the bottom of the reaction plate. The supernatant is subsequently withdrawn and transferred into a counting plate that is then evaluated by β-counting.
JAK2 Kinase Buffer (KB—Kinase buffer was composed of 50 mM HEPES pH 7.5 containing 10 mM MgCl2, 2.5 mM DTT, 10 microM Na3VO4, and 0.2 mg/mL BSA. 3× KB is buffer of the same composition and pH as KB, but with three times the concentration of each component.
Assay conditions—The JAK2 kinase assay was run with a final enzyme concentration of 1 nM, in the presence of 60 microM ATP, 3 nM 33P-γ-ATP and 64 microM of substrate Jaktide (Aminoacid sequence: LPLDKDYYVVREPGQ). The Jaktide was purchased from American Peptide Company (Sunnyvale, Calif.).
Compound Dilution—For IC50 determination, test compounds are received as a 1 mM solution in 100% DMSO, distributed into 96 well plates: compounds are then plated into the first column of a microtiter plate (A1 to G1), 100 μl/well. […]
Another mixing cycle is performed after all the plates are stopped, this time using normal tips: the plates are then allowed to rest for about one hour in order to maximize ATP capture. At this point, 27 μl of the supernatant are transferred into 384-Optiplates (Perkin-Elmer), with 50 μl of Microscint 40 (Perkin-Elmer); after 5 min of orbital shaking the plates are read on a Perkin-Elmer Top Count radioactivity counter.
Data Fitting—Data are analyzed by an internally customized version of the SW package “Assay Explorer” that provides sigmoidal fitting of the ten-dilutions curves for IC50 determination in the secondary assays/hit confirmation routines.

T1 sequence (Q9UM73 1060-1620): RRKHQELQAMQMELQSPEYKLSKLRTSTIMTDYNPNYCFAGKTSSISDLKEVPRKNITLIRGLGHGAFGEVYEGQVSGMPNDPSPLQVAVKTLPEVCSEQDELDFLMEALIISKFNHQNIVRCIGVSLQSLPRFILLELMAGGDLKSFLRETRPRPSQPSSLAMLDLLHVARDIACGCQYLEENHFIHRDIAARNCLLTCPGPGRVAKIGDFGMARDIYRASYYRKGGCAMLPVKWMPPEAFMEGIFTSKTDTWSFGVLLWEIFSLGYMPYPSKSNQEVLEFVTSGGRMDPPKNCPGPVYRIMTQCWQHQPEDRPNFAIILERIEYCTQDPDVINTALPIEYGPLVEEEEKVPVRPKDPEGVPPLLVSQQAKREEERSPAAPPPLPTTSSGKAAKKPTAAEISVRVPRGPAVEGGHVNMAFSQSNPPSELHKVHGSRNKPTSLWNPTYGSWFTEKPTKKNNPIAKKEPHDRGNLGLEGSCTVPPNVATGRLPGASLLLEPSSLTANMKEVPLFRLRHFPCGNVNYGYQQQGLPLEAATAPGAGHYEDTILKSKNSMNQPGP

Row | IC50 (ALK) [µM] | IC50 (IGF-1R) [µM] | IC50 (JAK2) [µM] | SMILES
1 | 1.87 | > 10 | 0.22 | O=C(Nc1n[nH]c2ccc(OCc3cc(F)cc(F)c3)cc12)c1ccccc1 [Ref. compound, reference compound]
2 | 0.02 | 0.14 | 0.02 | CN1CCN(c2ccc(C(=O)Nc3n[nH]c4ccc(OCc5cc(F)cc(F)c5)cc34)c(NC3CCOCC3)c2)CC1 [Cpd. 8, N-{5-[(3,5-difluorobenzyl)oxy]-1H-indazol-3-yl}-4-(4-methylpiperazin-1-yl)-2-(tetrahydro-2H-pyran-4-ylamino)benzamide]
3 | 0.01 | 0.2 | 0.01 | CN1CCN(c2ccc(C(=O)Nc3n[nH]c4ccc(OCc5cc(F)cc(F)c5)cc34)c(NCCF)c2)CC1 [Cpd. 36, N-{5-[(3,5-difluorobenzyl)oxy]-1H-indazol-3-yl}-2-[(2-fluoroethyl)amino]-4-(4-methylpiperazin-1-yl)benzamide]
